Laboratory results: patent US20240059698A1 (Accutar Biotechnology Inc., priority 2022, published 2024)

How the values were obtained:
Type in all cases: cell-based
HCC827 cells = assay: Cell growth inhibition (CellTiter-Glo), HCC827; conditions: Homo sapiens, 72 h, 3 days
Description: 2. Cell Growth Inhibition for HCC827, HCC827-SVD, HCC827-ASV, HCC827-YVMA, and A431.
HCC827(ATCC), HCC827-SVD, HCC827-ASV, and HCC827-YVMA cells were seeded in 96-well plates at 5000 cells/well in 90 μL of RPMI growth medium containing 10% FBS and 1% Penicillin Streptomycin. A431 (ATCC) cells were seeded in 96-well plates at 5000 cells/well in 90 μL of DMEM growth medium containing 10% FBS and 1% Penicillin Streptomycin. Cells were incubated at 37° C. overnight and then administered with 10 μL 10× test compounds prepared in the growth medium at various concentrations. After administration of the compounds, cells were incubated at 37° C. for 3 days. Before the CellTiter-Glo assay, the plates were equilibrated at room temperature for approximately 30 minutes. 100 ul of CellTiter-Glo reagent (Promega) was added to each well. The plates were then incubated at room temperature for 10 minutes and luminescence was recorded by the EnSight® multimode plate reader (PerkinElmer). Table 7 listed selected compounds in cellular growth assay.

[1] = test system: HCC827-SVD cells (human EGFR exon 20 insertion mutant D770_N771insSVD); assay: Cell growth inhibition (CellTiter-Glo), HCC827-SVD; conditions: 72 h, 3 days
Method in brief: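 Growth read by CellTiter-Glo luminescence after 3-day compound exposure at 37 °C. Engineered clonal HCC827 line (native EGFR deleted by CRISPR, mutant EGFR re-expressed) plated at 5000 cells/well in 10% FBS RPMI the night before dosing.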

[2] = test system: HCC827-YVMA cells (human ERBB2 exon20 insertion mutant A775_G776ins YVMA); assay: Cell growth inhibition (CellTiter-Glo), HCC827-YVMA; conditions: 72 h, HCC827-YVMA cells, 3 days, CellTiter-Glo, read-out: Cell growth inhibition, GI50 (nM) HCC827-YVMA
Method in brief: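 Growth in RPMI with 10% FBS was measured by CellTiter-Glo luminescence after 3 days at 37 °C with test compounds across a concentration range. The single-clone HCC827 lines carry a lentiviral YVMA (ERBB2) or ASV (EGFR) exon 20 insertion, with endogenous EGFR removed via sgRNA/Cas9.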

| Structure (SMILES) | GI50 (HCC827 cells) [nM] | GI50 [1] [nM] | GI50 [2] [nM] |
| --- | --- | --- | --- |
| C=CC(=O)N1CCC(c2c[nH]c3ncnc(Nc4ccc(OC5CCCN(S(=O)(=O)c6ccccc6)C5)cc4F)c23)CC1 (stereo in doubt) [Compound 124, (S)-1-(4-(4-((2-fluoro-4-((1-(phenylsulfonyl)piperidin-3-yl)oxy)phenyl)amino)-7H-pyrrolo[2,3-d]pyrimidin-5-yl)piperidin-1-yl)prop-2-en-1-one] | 200 to 1000 | 200 to 1000 | 50 to 200 |
| C=CC(=O)N1CCC(c2c[nH]c3ncnc(Nc4ccc(OCc5ccnc(-n6ccc(OC)n6)c5)cc4F)c23)CC1 [Compound 92, 1-(4-(4-((2-fluoro-4-((2-(3-methoxy-1H-pyrazol-1-yl)pyridin-4-yl)methoxy)phenyl)amino)-7H-pyrrolo[2,3-d]pyrimidin-5-yl)piperidin-1-yl)prop-2-en-1-one] | 50 to 200 | 50 to 200 | 50 to 200 |
| C=CC(=O)N1CCC(c2c[nH]c3ncnc(Nc4ccc(OCc5ccnc(Nc6ccccn6)c5)cc4F)c23)CC1 [Compound 93, 1-(4-(4-((2-fluoro-4-((2-(pyridin-2-ylamino)pyridin-4-yl)methoxy)phenyl)amino)-7H-pyrrolo[2,3-d]pyrimidin-5-yl)piperidin-1-yl)prop-2-en-1-one] | 50 to 200 | 50 to 200 | 50 to 200 |
| C=CC(=O)N1CCC(c2c[nH]c3ncnc(Nc4ccc(OCc5ccc(-c6ccccc6)nc5)cc4F)c23)CC1 [Compound 96, 1-(4-(4-((2-fluoro-4-((6-phenylpyridin-3-yl)methoxy)phenyl)amino)-7H-pyrrolo[2,3-d]pyrimidin-5-yl)piperidin-1-yl)prop-2-en-1-one] | 200 to 1000 | > 1000 | 200 to 1000 |
| C=CC(=O)N1CCC(c2c[nH]c3ncnc(Nc4ccc(OCc5ccnc(-c6ccccc6)c5)cc4F)c23)CC1 [Compound 97, 1-(4-(4-((2-fluoro-4-((2-phenylpyridin-4-yl)methoxy)phenyl)amino)-7H-pyrrolo[2,3-d]pyrimidin-5-yl)piperidin-1-yl)prop-2-en-1-one] | 200 to 1000 | 200 to 1000 | 200 to 1000 |
| C=CC(=O)N1CCC(c2c[nH]c3ncnc(Nc4ccc(OCc5nc(C(F)(F)F)cs5)c(Cl)c4)c23)CC1 [Compound 103, 1-(4-(4-((3-chloro-4-((4-(trifluoromethyl)thiazol-2-yl)methoxy)phenyl)amino)-7H-pyrrolo[2,3-d]pyrimidin-5-yl)piperidin-1-yl)prop-2-en-1-one] | 50 to 200 | 50 to 200 | 50 to 200 |
| C=CC(=O)N1CCC(c2c[nH]c3ncnc(Nc4ccc(Oc5ccnc(Nc6ccccc6)c5)cc4F)c23)CC1 [Compound 104, 1-(4-(4-((2-fluoro-4-((2-(phenylamino)pyridin-4-yl)oxy)phenyl)amino)-7H-pyrrolo[2,3-d]pyrimidin-5-yl)piperidin-1-yl)prop-2-en-1-one] | 200 to 1000 | 50 to 200 | < 50 |
| C=CC(=O)N1CCC(c2c[nH]c3ncnc(Nc4ccc(OCc5ccccn5)cc4F)c23)CC1 [Compound 105, 1-(4-(4-((2-fluoro-4-(pyridin-2-ylmethoxy)phenyl)amino)-7H-pyrrolo[2,3-d]pyrimidin-5-yl)piperidin-1-yl)prop-2-en-1-one] | < 50 | < 50 | < 50 |
| C=CC(=O)N1CCC(c2c[nH]c3ncnc(Nc4ccc(OCc5ccccn5)c(Cl)c4F)c23)CC1 [Compound 106, 1-[4-[4-[3-chloro-2-fluoro-4-(2-pyridylmethoxy)anilino]-7H-pyrrolo[2,3-d]pyrimidin-5-yl]-1-piperidyl]prop-2-en-1-one] | < 50 | < 50 | < 50 |
| C=CC(=O)N1CCC(c2c[nH]c3ncnc(Nc4ccc(Oc5ccnc(N6CC(C(F)(F)F)C6)c5)cc4F)c23)CC1 [Compound 107, 1-(4-(4-((2-fluoro-4-((2-(3-(trifluoromethyl)azetidin-1-yl)pyridin-4-yl)oxy)phenyl)amino)-7H-pyrrolo[2,3-d]pyrimidin-5-yl)piperidin-1-yl)prop-2-en-1-one] | > 1000 | 200 to 1000 | 50 to 200 |
| C=CC(=O)N1CCC(c2c[nH]c3ncnc(Nc4ccc(Oc5ccnc(NC6CCC6)c5)cc4F)c23)CC1 [Compound 109, 1-[4-[4-[4-[[2-(cycloButylamino)-4-pyridyl]oxy]-2-fluoro-anilino]-7H-pyrrolo[2,3-d]pyrimidin-5-yl]-1-piperidyl]prop-2-en-1-one] | < 50 | 50 to 200 | < 50 |
| C=CC(=O)N1CCC(c2n[nH]c3ncnc(Nc4ccc(Oc5ccnc(NC(=O)c6cnn(C)c6)c5)cc4F)c23)CC1 [Compound 196, N-(4-(4-((3-(1-acryloylpiperidin-4-yl)-1H-pyrazolo[3,4-d]pyrimidin-4-yl)amino)-3-fluorophenoxy)pyridin-2-yl)-1-methyl-1H-pyrazole-4-carboxamide] |  | 200 to 1000 | 200 to 1000 |

Results, then the compound that gave them:

| GI50 (HCC827 cells) [nM] | GI50 [1] [nM] | GI50 [2] [nM] | Structure (SMILES) |
| --- | --- | --- | --- |
| 50 to 200 | 50 to 200 | 50 to 200 | C=CC(=O)N1CCC(c2c[nH]c3ncnc(Nc4ccc(OCc5nccn5C)c(Cl)c4)c23)CC1 [Compound 94, 1-(4-(4-((3-chloro-4-((1-methyl-1H-imidazol-2-yl)methoxy)phenyl)amino)-7H-pyrrolo[2,3-d]pyrimidin-5-yl)piperidin-1-yl)prop-2-en-1-one] |
| < 50 | < 50 | < 50 | C=CC(=O)N1CCC(c2c[nH]c3ncnc(Nc4ccc(OCc5ncco5)c(Cl)c4)c23)CC1 [Compound 95, 1-(4-(4-((3-chloro-4-(oxazol-2-ylmethoxy)phenyl)amino)-7H-pyrrolo[2,3-d]pyrimidin-5-yl)piperidin-1-yl)prop-2-en-1-one] |
| < 50 | < 50 | < 50 | C=CC(=O)N1CCC(c2c[nH]c3ncnc(Nc4ccc(OCc5cccc(C)n5)c(Cl)c4)c23)CC1 [Compound 98, 1-(4-(4-((3-chloro-4-((6-methylpyridin-2-yl)methoxy)phenyl)amino)-7H-pyrrolo[2,3-d]pyrimidin-5-yl)piperidin-1-yl)prop-2-en-1-one] |
| 50 to 200 | 50 to 200 | < 50 | C=CC(=O)N1CCC(c2c[nH]c3ncnc(Nc4ccc(OCc5ccc(OC)cn5)c(Cl)c4)c23)CC1 [Compound 99, 1-(4-(4-((3-chloro-4-((5-methoxypyridin-2-yl)methoxy)phenyl)amino)-7H-pyrrolo[2,3-d]pyrimidin-5-yl)piperidin-1-yl)prop-2-en-1-one] |
| < 50 | < 50 | < 50 | C=CC(=O)N1CCC(c2c[nH]c3ncnc(Nc4ccc(OCc5cc(C#N)ccn5)c(Cl)c4)c23)CC1 [Compound 100, 2-((4-((5-(1-acryloylpiperidin-4-yl)-7H-pyrrolo[2,3-d]pyrimidin-4-yl)amino)-2-chlorophenoxy)methyl)isonicotinonitrile] |
| 50 to 200 | 50 to 200 | 50 to 200 | C=CC(=O)N1CCC(c2c[nH]c3ncnc(Nc4ccc(OCc5ccc(C#N)cn5)c(Cl)c4)c23)CC1 [Compound 101, 6-((4-((5-(1-acryloylpiperidin-4-yl)-7H-pyrrolo[2,3-d]pyrimidin-4-yl)amino)-2-chlorophenoxy)methyl)nicotinonitrile] |
| 50 to 200 | 50 to 200 | < 50 | C=CC(=O)N1CCC(c2c[nH]c3ncnc(Nc4ccc(OCc5cn6ccccc6n5)c(Cl)c4)c23)CC1 [Compound 102, 1-(4-(4-((3-chloro-4-(imidazo[1,2-a]pyridin-2-ylmethoxy)phenyl)amino)-7H-pyrrolo[2,3-d]pyrimidin-5-yl)piperidin-1-yl)prop-2-en-1-one] |
| 200 to 1000 | > 1000 | > 1000 | C=CC(=O)N1CCC(c2c[nH]c3ncnc(Nc4ccc(OCc5cnn(C(C)C)c5)c(Cl)c4)c23)CC1 [Compound 108, 1-(4-(4-((3-chloro-4-((1-isopropyl-1H-pyrazol-4-yl)methoxy)phenyl)amino)-7H-pyrrolo[2,3-d]pyrimidin-5-yl)piperidin-1-yl)prop-2-en-1-one] |
| 50 to 200 | 200 to 1000 | 50 to 200 | C=CC(=O)N1CCC(c2c[nH]c3ncnc(Nc4ccc(OCc5ccc(C(F)(F)F)cn5)c(Cl)c4)c23)CC1 [Compound 112, 1-(4-(4-((3-chloro-4-((5-(trifluoromethyl)pyridin-2-yl)methoxy)phenyl)amino)-7H-pyrrolo[2,3-d]pyrimidin-5-yl)piperidin-1-yl)prop-2-en-1-one] |
| < 50 | < 50 | < 50 | C=CC(=O)N1CCC(c2c[nH]c3ncnc(Nc4ccc(OCc5ccncn5)c(Cl)c4)c23)CC1 [Compound 114, 1-(4-(4-((3-chloro-4-(pyrimidin-4-ylmethoxy)phenyl)amino)-7H-pyrrolo[2,3-d]pyrimidin-5-yl)piperidin-1-yl)prop-2-en-1-one] |
